Results on 6 compounds are retold here after US6756389B2, “Pharmaceutically active compounds and methods of use” (Cambridge Neuroscience, Inc., priority 1996, dated 2004).

Structures can show the parent of a compound that is named as a salt.

The first data set has as its system DBA/2 mice (audiogenic seizures). Briefly: In vivo anticonvulsant activity in the DBA/2 mouse model (mouse audiogenic assay). To be noted: 10 mg/kg intraperitoneally 30 minutes prior to auditory stimulus (12 KHz sine wave, 110-120 db, 60 seconds), inhibition relative to vehicle controls. How it is done:
As discussed above, preferred compounds of the invention are active in a standard anticonvulsant in vivo audiogenic test, such as the audiogenic mouse assay of Example 6 which follows, where DBA/2 mice about 20-23 days old are injected intraperitoneally with a test compound 30 minutes prior to being placed in a bell jar with exposure to auditory stimulus of 12 KHz sine wave at 110-120 db. References herein in vivo “audiogenic assay” are intended to refer to that protocol. […] As discussed above, activity in the audiogenic assay has been recognized as indicative that a test compound has neuroprotective properties. See, e.g., M. Tricklebank et al., European Journal of Pharmacology, supra; T. Seyfried, Federation Proceedings, supra.
Compounds were tested for their effectiveness in preventing seizures in DBA/2 mice which have a unique sensitivity to auditory stimulation. Exposure to loud high-frequency sounds can trigger seizure activity in these animals. […]
Mice were injected intraperitoneally with the compound specified in Table I below or with vehicle control, 30 minutes prior to being placed in a bell jar and turning on the auditory stimulus (12 KHz sine wave at 110-120 db). […] The auditory stimulus was left on for 60 seconds and mice reactions were timed and recorded. Percentage inhibition was determined with reference to vehicle controls.
With `Cc1ccc([C@H]2CCC[C@@H](c3ccc(C)cc3)N2C(=N)N)cc1` [Example 1, N-carboximidamide-r-2, c-6-di(4-methylphenyl)piperidine], the “Audiogenic Response % Inhib.” value stood at 42%.

Turning to `CC(C)c1ccc([C@H]2CCC[C@@H](c3ccc(C(C)C)cc3)N2C(=N)N)cc1.Cl` [Example 2, N-carboximidamide-r-2,c-6-di(4-isopropylphenyl)piperidine], the “Audiogenic Response % Inhib.” value was 69%.

Test system in another data set: not given
Test: not given
Settings: not given
One may read the melting point as the temperature, or range, at which the solid turns liquid. Regarding `Cl.N=C(N)N1[C@@H](c2ccccc2)CC[C@H]1c1ccccc1`, the melting point lay within 242 to 244 °C.

For `CC(C)c1ccc([C@H]2CCC[C@@H](c3ccc(C(C)C)cc3)N2C(=N)N)cc1.Cl` [Example 2, N-carboximidamide-r-2,c-6-di(4-isopropylphenyl)piperidine], the melting point lay in the range of 197 to 199 °C.

For `Cl.N=C(Nc1ccccc1)N1[C@@H](c2ccccc2)CCC[C@H]1c1ccccc1`, the melting point is 82 to 84 °C.

On to `Cc1ccc([C@H]2CCC[C@@H](c3ccc(C)cc3)N2C(=N)N)cc1` (as salt: mesylate) [Example 1, N-carboximidamide-r-2, c-6-di(4-methylphenyl)piperidine], for which the melting point fell in the range of 183 to 185 °C.

`Cc1ccc([C@H]2CCC[C@H](c3ccc(C)cc3)N2C(=N)N)cc1.Cl` displayed a melting point of 120 °C.
